Source: PubChem BioAssay (NCI)
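Grown in 96-well plates, cells were treated for 48 hours with each compound at five concentrations. Insufficient inhibition: endpoint recorded as highest concentration tested. GI50 is the concentration that inhibits growth by half. TGI: concentration producing complete growth inhibition.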

Tests used:
Experiment in all cases: inhibition of tumour cell growth, NCI panel, 48 h
MALME-3M melanoma = test system: MALME-3M melanoma
NCI-H226 lung = test system: NCI-H226 lung
OVCAR-5 ovarian = test system: OVCAR-5 ovarian
RPMI-8226 leukemia = test system: RPMI-8226 leukemia
RXF 393 renal = test system: RXF 393 renal
SF-268 CNS = test system: SF-268 CNS
UACC-257 melanoma = test system: UACC-257 melanoma
HCT-116 colon = test system: HCT-116 colon
HOP-62 NSCLC = test system: HOP-62 NSCLC
KM20L2 colon = test system: KM20L2 colon
M14 melanoma = test system: M14 melanoma
M19-MEL melanoma = test system: M19-MEL melanoma
SNB-78 CNS = test system: SNB-78 CNS

Row | SMILES | GI50 (MALME-3M melanoma) | TGI (MALME-3M melanoma) | GI50 (NCI-H226 lung) | TGI (NCI-H226 lung) | GI50 (OVCAR-5 ovarian) | TGI (OVCAR-5 ovarian) | GI50 (RPMI-8226 leukemia) | TGI (RPMI-8226 leukemia) | GI50 (RXF 393 renal) | TGI (RXF 393 renal) | GI50 (SF-268 CNS) | TGI (SF-268 CNS) | GI50 (UACC-257 melanoma) | TGI (UACC-257 melanoma) | TGI (HCT-116 colon) | TGI (HOP-62 NSCLC) | TGI (KM20L2 colon) | TGI (M14 melanoma) | TGI (M19-MEL melanoma) | TGI (SNB-78 CNS)
1 | COC(=O)C(C)N1C(=O)c2ccccc2I1OC(C)=O (stereo not drawn) | 16.8 µM | 54 µM | > 100 µM | > 100 µM | > 100 µM | > 100 µM | 15.3 µM | 37.6 µM | 32.3 µM | > 100 µM | 69 µM | > 100 µM | > 100 µM | > 100 µM |  |  |  |  |  | 
2 | CCOC(=O)C1C(c2cc(OC)c(O)c(OC)c2)c2cc3c(cc2OC1(C)O)OCO3 (stereo not drawn) |  | > 100 µM |  |  |  |  |  | > 100 µM |  |  |  |  |  | > 100 µM | > 100 µM | > 100 µM | > 100 µM | > 100 µM | > 100 µM | > 100 µM
3 | Cc1cc(NS(=O)(=O)c2ccc(Nc3c4ccccc4nc4c(C(=O)NCCN(C)C)ccc(Cl)c34)cc2)no1 |  |  |  | 4.57 µM |  | 28.5 µM |  |  |  | 22.8 µM |  | 15.3 µM |  |  | 15.5 µM | 17.3 µM | 24 µM | 17.6 µM | 16.9 µM | 44 µM
